Test results taken from patent US20210317111A1, “NOVEL MEDICAMENT FOR TREATING INFLAMMATORY BOWEL DISEASE” (OTSUKA PHARMACEUTICAL CO., LTD., priority 2018, published 2021).
Converted amounts (≈) assume the structure as drawn.

What was measured:
Fusobacterium spp. = experiment: antibacterial activity (MIC), agar plate dilution method; format: cell-based; conditions: 17 strains of Fusobacterium spp.; anaerobic, 37° C.
Description: There are plural reports about the relationship between intestinal bacteria and inflammatory bowel disease, and it is thought that Fusobacterium spp., one of the intestinal bacteria is a pathogenic bacteria causing inflammatory bowel disease. […] The antibacterial activity (minimum inhibitory concentration (MIC)) was assayed by agar plate dilution method which is based on Clinical and laboratory standards institute (CLSI). The medium used herein was Brucella medium with sheep blood. […] The bacterial suspension was inoculated onto Brucella agar with sheep blood which contains the present compound or any one of the comparative drugs, and incubated at 37° C. under an anaerobic condition.

IFN-γ = IFN-γ production by stimulated PBMC (ELISA); format: cell-based; conditions: stimulated human PBMC, 3 days, culture supernatant
Description: (§1) Peripheral blood (30 mL) derived from a healthy adult was layered on a lymphocyte tube Leucosep™ containing Lymphoprep (15 mL), and the tube was centrifuged at room temperature at 2000 rpm for 20 minutes. After the centrifugation, the upper 5 mL of the plasma was removed from the peripheral blood mononuclear cell (PBMC) layer with an aspirator, and the left solution containing the PBMC layer was collected into a new 50 mL tube. To the collected solution was added an equal amount of Hanks' balanced salt solution (HBSS) to dilute the cell suspension. The diluted solution was centrifuged at 4° C. at 1800 rpm for 5 minutes. After the centrifugation, the supernatant was discarded, the rest was suspended in 10 mL of AIM-V. The suspension was centrifuged at 4° C. at 1500 rpm for 5 minutes, and the supernatant was discarded. The same washing process was repeated one more time. After the centrifugation, the supernatant was discarded, and the obtained cell was suspended in 5% FBS-containing AIM-V to be used in the following tests.
(§2) To 96-well round-bottom plate were added 100 μL of medium containing the compound, 100 μL (0.5×10^5 beads) of anti-CD3/CD28/CD2-loaded bead suspension (Miltenyi), and 100 μL (1×10^5 cells) of PBMC suspension. The mixture was incubated at 37° C. in 5% CO2 for 3 days.

proliferated T cell = experiment: T-cell proliferation (CFSE) in stimulated PBMC; format: cell-based, human; conditions: both CD4-positive and CD8-positive T-cell; 2 days
Description: as §1, with “tests. […]” for “tests.”

[1] = system: naive T cell transfer model of colitis; experiment: naive T cell transfer model of colitis (Crohn's disease mouse model), histological scoring of large intestine; format: in vivo
From the text: From spleen of Balb/c mouse, naive T cell (CD4+CD62L+CD44−) was isolated with antibody-coated magnetic beads. The isolated naive T cell (5×10^5 cells/mouse) was transplanted in abdominal cavity of SCID mouse which is a severe combined immunodeficiency animal. The present compound was orally administered to the mouse once a day at each dose defined in Table 1 below, from the first day of the transplantation for Test 1, or from the 2nd week after the transplantation for Test 2, until 5 weeks after the transplantation. [table] […] The anti-TNF-α antibody was intraperitoneally administered to the mouse twice a week at each dose defined in Table 2 below, from the 2nd week after the transplantation, for 2 weeks. [table] At 5th week for Tests 1 and 2, and at 4th week for Test 3, the large intestine was removed, and the length and weight of the large intestine were measured. In addition, the large intestine was fixed with formalin to carry out pathological analysis. From the removed large intestine, the anus part, the center part, and the cecal part were cut out each in about 0.5 cm, and each part was fixed with formalin. The paraffin block thereof was prepared, sliced, and subjected to H&E staining. The H&E stained slice was examined with a microscope to score it histologically. The histological scoring was carried out by scoring the inflammatory cell infiltrate, the Goblet cell loss, and the hyperplasia of mucosal epithelium, based on the standard (0-4) defined in Table 3 below. [table]

[2] = system: Mycobacterium avium subspecies paratuberculosis (MAP); experiment: antibacterial activity (MIC), broth microdilution method; format: cell-based; conditions: 336 h
Description: The chronic enterocolitis of ruminants which is caused by Mycobacterium avium subspecies paratuberculosis (MAP) is similar to Crohn's disease. […] Thus, the antibacterial activity of the present compound against MAP was evaluated. The used comparative drugs for the present compound were rifaximin (RFX), ciprofloxacin (CPFX), metronidazole (MTZ), clarithromycin (CAM), rifabutin (RBT), and clofazimine (CFZ).
The antibacterial activity (minimum inhibitory concentration (MIC)) was assayed by broth microdilution method which is based on Clinical and laboratory standards institute (CLSI).
The 5 strains of MAP were inoculated onto Middlebrook 7H9 agar containing 10% dubos oleic albumin complex (OADC), Tween 80 (0.5 g/L), mycobactin J (2 mg/L), and 1.5% agar, and pre-cultured at 37° C. under an aerobic condition for 14 days. After the pre-culture, the bacterial cell was scraped out from the agar, and prepared to the turbidity of 0.5 Mcfarland standard using Middlebrook 7H9 broth containing 10% dubos oleic albumin complex (OADC), Tween 80 (0.5 g/L), and mycobactin J (2 mg/L)]. The 10-fold diluted solution of the bacterial suspension was inoculated onto Middlebrook 7H9 broth 96-well plate which contains the present compound or any one of the comparative drugs, and incubated at 37° C. under an aerobic condition for 14 days.
After the incubation, the bacterial growth in each well of the 96-well plate was visually checked. The minimum concentration at which the bacterial growth was not observed, compared with the result of the well containing neither present compound nor comparative drug was determined as MIC of the present compound or each comparative drug against each test bacterium.

[3] = system: activated T cell (CD25+ cell); experiment: T-cell activation (CD25+ cells) in anti-CD3/CD28/CD2 bead-stimulated PBMC; format: cell-based, human; conditions: both CD4-positive and CD8-positive T-cell
Description: as §1, §2

TNF-α = TNF-α production by stimulated PBMC (ELISA); format: cell-based; conditions: stimulated human PBMC, 3 days, culture supernatant
Description: as §1, §2

## Cc1c(-c2cnc(N)c(C#N)c2)c(F)cc2c(=O)c(C(=O)O)cn(C3CC3)c12 [the present compound, 7-(6-amino-5-cyanopyridin-3-yl)-1-cyclopropyl-6-fluoro-1,4-dihydro-8-methyl-4-oxo-3-quinoline-carboxylic acid]
Fusobacterium spp.
  MIC: 0.25 to 1 µg/mL (≈ 0.661 to 2.64 µM)
IFN-γ
  cytokine production (IFN-γ): decreased
Proliferated T cell
  inhibition of T cell proliferation (MFI CFSE): effect of cell growth inhibition
[1]; 2.5 mg/kg or more, oral once a day from first day of transplantation until 5 weeks, vs solvent control
  histological score (Test 1, preventive effect): inhibited the increase of the histological score
[1]; 5 mg/kg or more, oral once a day from 2nd week after transplantation until 5 weeks, vs solvent control
  histological score (Test 2, therapeutic effect): significantly inhibited the increase of the histological score
[1]; from 2nd week after transplantation for 2 weeks, present compound, CPFX, RFX oral once a day 10 mg/kg, antibody 25 mg/kg i.p. twice a week, 4th week
  histological score (Test 3, comparative study): potent inhibitory effect at the same level as Normal group
[2]
  MIC: 0.06 to 0.5 µg/mL (≈ 0.159 to 1.32 µM)
[3]; 30 μM
  inhibitory activity on T cell activation compared with prednisolone: higher inhibitory activity than prednisolone
[3]; 6 people's human PBMC, 3 days
  rate of activated T cell: decreased
TNF-α
  cytokine production (TNF-α): decreased
